{"source": "patent US11034670B2", "about": "“Poly-ADP ribose polymerase (PARP) inhibitors” (Mitobridge, Inc., priority 2016, dated 2021)", "system": "kidney injury (ischemia-reperfusion)", "settings": "rat; for blood urea nitrogen (BUN) / plasma creatinine: 15 mg/kg IV after ischemia-reperfusion, 24 hours after reperfusion, vs IR-vehicle; for kidney injury: dosed IV after ischemia-reperfusion"}
{"compound": "C[C@H]1CN(c2ccc(C#N)cn2)CCN1C(=O)CCc1nc2ccc(F)cc2c(=O)[nH]1", "note": "[Ex. 29, 6-[(3S)-4-[3-(6-fluoro-4-oxo-3H-quinazolin-2-yl)propanoyl]-3-methyl-piperazin-1-yl]pyridine-3-carbonitrile]", "values": [{"measurement": "blood urea nitrogen (BUN)", "result": "significantly reduced"}, {"measurement": "plasma creatinine", "result": "significantly reduced"}, {"measurement": "kidney injury", "result": "reduced kidney injury"}]}
{"compound": "C[C@H]1CN(c2ccc(C#N)cn2)CCN1C(=O)CCc1nc2cccc(F)c2c(=O)[nH]1", "note": "[Ex. 30, 6-[(3S)-4-[3-(5-fluoro-4-oxo-3H-quinazolin-2-yl)propanoyl]-3-methyl-piperazin-1-yl]pyridine-3-carbonitrile]", "values": [{"measurement": "blood urea nitrogen (BUN)", "result": "significantly reduced"}, {"measurement": "plasma creatinine", "result": "significantly reduced"}, {"measurement": "kidney injury", "result": "reduced kidney injury"}]}
